# Measurements: PMC7044277 (Nature Communications, 2020)
# Values joined by “and” are separate entries in the source; they are usually repeats but may differ in a detail not shown here. Equal values may be shown once.
# Key:
# Assay type in all cases: cell-based
# DRD2 S1935.42G = biological target: T1, DRD2 S1935.42G (Homo sapiens, UniProt P14416, S193G); assay: Gαi/o-mediated cAMP inhibition (GloSensor), mutant; conditions: DRD2 Ser5.42Gly; G-protein assay
# T1 construct: expressed in transfected cells; host or cells: HEK293T (ATCC CRL-11268)
# T1 sequence (P14416 whole entry S193G): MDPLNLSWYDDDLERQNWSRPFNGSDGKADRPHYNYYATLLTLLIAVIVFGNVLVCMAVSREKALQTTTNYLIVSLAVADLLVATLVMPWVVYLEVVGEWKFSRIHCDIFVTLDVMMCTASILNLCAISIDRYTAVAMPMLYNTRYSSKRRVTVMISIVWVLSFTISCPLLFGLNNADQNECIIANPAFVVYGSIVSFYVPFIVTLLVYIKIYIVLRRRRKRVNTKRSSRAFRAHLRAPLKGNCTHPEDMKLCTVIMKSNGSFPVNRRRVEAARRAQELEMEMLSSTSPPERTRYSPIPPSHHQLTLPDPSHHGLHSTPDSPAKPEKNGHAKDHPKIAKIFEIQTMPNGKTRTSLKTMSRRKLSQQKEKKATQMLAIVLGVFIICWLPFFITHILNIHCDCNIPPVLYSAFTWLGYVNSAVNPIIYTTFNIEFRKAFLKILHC
# DRD2 S1945.43G = biological target: T2, DRD2 S1945.43G (Homo sapiens, UniProt P14416, S194G); assay: Gαi/o-mediated cAMP inhibition (GloSensor), mutant; conditions: DRD2 Ser5.43Gly; G-protein assay
# T2 construct: expressed in transfected cells; host or cells: HEK293T (ATCC CRL-11268)
# T2 sequence (P14416 whole entry S194G): as the sequence (P14416 whole entry S193G) above, with G193S, S194G counted along it
# DRD2 S1975.46G = biological target: T3, DRD2 S1975.46G (Homo sapiens, UniProt P14416, S197G); assay: Gαi/o-mediated cAMP inhibition (GloSensor), mutant; conditions: DRD2 Ser197^5.46Gly; G-protein assay
# T3 construct: expressed in transfected cells; host or cells: HEK293T (ATCC CRL-11268)
# T3 sequence (P14416 whole entry S197G): as the sequence (P14416 whole entry S193G) above, with G193S, S197G counted along it
# DRD1 = DRD1 (Homo sapiens, UniProt P21728); assay: β-arrestin2 recruitment (Tango); conditions: agonist mode
# DRD1, sequence (P21728 whole entry): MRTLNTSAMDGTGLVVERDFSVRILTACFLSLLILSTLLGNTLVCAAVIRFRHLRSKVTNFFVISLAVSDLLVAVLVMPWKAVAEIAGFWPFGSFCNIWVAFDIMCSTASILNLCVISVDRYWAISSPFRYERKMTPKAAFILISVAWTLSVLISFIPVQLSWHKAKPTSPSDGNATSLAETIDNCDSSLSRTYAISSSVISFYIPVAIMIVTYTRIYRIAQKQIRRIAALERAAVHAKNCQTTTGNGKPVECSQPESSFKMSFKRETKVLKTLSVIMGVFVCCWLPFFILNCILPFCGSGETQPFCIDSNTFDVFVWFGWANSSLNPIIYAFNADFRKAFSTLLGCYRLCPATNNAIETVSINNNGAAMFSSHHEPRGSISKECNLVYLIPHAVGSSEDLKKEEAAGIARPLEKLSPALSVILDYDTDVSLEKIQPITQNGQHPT
# DRD5 = DRD5 (Homo sapiens, UniProt P21918); assay: β-arrestin2 recruitment (Tango); conditions: Fig_S10e, single replicates
# DRD5, sequence (P21918 whole entry): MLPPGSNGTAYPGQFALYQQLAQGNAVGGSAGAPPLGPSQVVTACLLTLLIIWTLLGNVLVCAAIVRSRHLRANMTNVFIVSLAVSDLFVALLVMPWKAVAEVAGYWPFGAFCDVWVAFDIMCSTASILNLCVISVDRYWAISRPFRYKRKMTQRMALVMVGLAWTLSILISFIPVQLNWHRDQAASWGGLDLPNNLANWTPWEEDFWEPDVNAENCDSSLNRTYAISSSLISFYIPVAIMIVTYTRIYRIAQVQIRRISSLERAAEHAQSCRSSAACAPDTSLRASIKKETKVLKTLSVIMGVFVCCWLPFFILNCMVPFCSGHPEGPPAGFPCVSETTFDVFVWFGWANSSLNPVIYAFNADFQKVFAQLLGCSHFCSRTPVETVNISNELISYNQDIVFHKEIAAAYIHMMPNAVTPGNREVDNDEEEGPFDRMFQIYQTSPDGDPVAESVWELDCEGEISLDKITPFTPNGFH
# 5HT2C = biological target: T4, 5HT2C (Homo sapiens, UniProt P28335); assay: β-arrestin2 recruitment (Tango); conditions: Fig_S10m; for β-arrestin2 recruitment response in presence of serotonin (replicate values): +10μM serotonin; for β-arrestin2 recruitment response (dose-response source data, replicate values): drug alone
# T4 sequence (P28335 33-458): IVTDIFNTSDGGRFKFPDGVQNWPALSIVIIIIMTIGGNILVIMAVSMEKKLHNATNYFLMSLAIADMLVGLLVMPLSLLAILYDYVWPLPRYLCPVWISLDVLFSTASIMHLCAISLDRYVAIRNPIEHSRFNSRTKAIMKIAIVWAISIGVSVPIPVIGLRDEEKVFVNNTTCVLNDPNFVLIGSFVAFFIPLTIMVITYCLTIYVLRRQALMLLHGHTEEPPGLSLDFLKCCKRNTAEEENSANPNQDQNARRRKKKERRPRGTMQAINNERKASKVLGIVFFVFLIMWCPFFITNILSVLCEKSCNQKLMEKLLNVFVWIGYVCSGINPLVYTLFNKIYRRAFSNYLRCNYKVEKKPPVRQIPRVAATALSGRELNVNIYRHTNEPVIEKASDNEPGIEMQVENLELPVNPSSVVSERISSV
smiles,measurement,setting,value
CCOc1cccc2cc([C@@H](C)NCC3(O)CCCCC3)oc12 [O4RE6],agonism after serine to glycine substitution,DRD2 S1935.42G,impaired
same,agonism after serine to glycine substitution,DRD2 S1945.43G,impaired
same,agonism after serine to glycine substitution,DRD2 S1975.46G,impaired
same,"Fig_S10d concentration-response source data, compound alone (replicates)",DRD1; Log[Drug] -6.52,1.905
same,"Fig_S10d concentration-response source data, compound alone (replicates)",DRD1; Log[Drug] -7,1.064 and 2.282 and -0.6391 and 0.289 and -0.08278 and 0.4865 and -0.4054 and 1.577 and 0.01217
same,"Fig_S10d concentration-response source data, compound alone (replicates)",DRD1; Log[Drug] -7.52,1.077 and 0.9051 and -0.1158 and 0.04295 and -0.04452 and 0.1062 and 0.53 and 4.578 and 0.07397
same,"Fig_S10d concentration-response source data, compound alone (replicates)",DRD1; Log[Drug] -8,0.3903 and 0.04289 and 0.7249 and 0.1109 and 0.1132 and -0.0164 and 0.2378 and 0.7481 and 0.5777
same,"Fig_S10d concentration-response source data, compound alone (replicates)",DRD1; Log[Drug] -8.52,1.047 and 2.106 and 1.068 and 0.04686 and -0.2007 and -0.1148 and -0.01592 and 0.004682 and 0.05431
same,"Fig_S10d concentration-response source data, compound alone (replicates)",DRD1; Log[Drug] -9,0.3903 and 1.591 and 1.077 and 0.9231 and 0.04452 and 0.3311 and -0.4785 and 2.978 and 0.1554
same,"Fig_S10d concentration-response source data, compound alone (replicates)",DRD1; Log[Drug] -9.52,0.3689 and -0.1244 and 0.7292 and 0.2936 and 0.3303 and 0.01406 and 0.5824 and 0.412 and 0.617
same,"Fig_S10d concentration-response source data, compound alone (replicates)",DRD1; Log[Drug] -10,7.429 and 0.8836 and 0.03432 and 0.6724 and -0.1109 and 0.4569 and -0.09176 and 0.9157 and -0.1386
same,"Fig_S10d concentration-response source data, compound alone (replicates)",DRD1; Log[Drug] -10.52,-0.3217 and 1.253 and 1.072 and 0.2647 and -0.2624 and -0.04452 and -0.9541 and 0.426 and 0.1283
same,"Fig_S10d concentration-response source data, compound alone (replicates)",DRD1; Log[Drug] -11,0.05147 and 1.072 and 2.964 and 0.7974 and -0.07497 and -0.2936 and -0.2444 and 1.441 and -0.4363
same,"Fig_S10d concentration-response source data, compound alone (replicates)",DRD1; Log[Drug] -11.52,1.244 and 0.2102 and -0.6649 and -0.01562 and -0.1695 and 0.02187 and -0.1648 and 0.6545 and -0.5449
same,"Fig_S10d concentration-response source data, compound alone (replicates)",DRD1; Log[Drug] -12,0.04289 and 4.504 and 6.396 and -0.1351 and 0.3358 and -0.1991 and -0.1554 and -0.2734 and -0.1919
same,"β-arrestin2 recruitment response, agonist mode (normalized)",DRD5; Log[Drug] -6.52,3.307
same,"β-arrestin2 recruitment response, agonist mode (normalized)",DRD5; Log[Drug] -7,3.556 and 3.7037 and 0.3329 and 4.539 and 1.619 and 0.7476 and 0.7305 and 1.517 and 0.06412
same,"β-arrestin2 recruitment response, agonist mode (normalized)",DRD5; Log[Drug] -7.52,3.831 and -0.7608 and 1.183 and 2.699 and 1.3394 and 0.2373 and -0.5855 and 0.1756 and 0.6817
same,"β-arrestin2 recruitment response, agonist mode (normalized)",DRD5; Log[Drug] -8,-0.354 and 4.126 and 1.796 and 1.252 and 1.785 and 1.286 and -0.552 and 0.7932 and 1.175
same,"β-arrestin2 recruitment response, agonist mode (normalized)",DRD5; Log[Drug] -8.52,4.945 and 4.734 and 2.002 and 0.8283 and 1.858 and 0.3616 and -0.1241 and 0.7932 and 0.1701
same,"β-arrestin2 recruitment response, agonist mode (normalized)",DRD5; Log[Drug] -9,-0.5336 and 1.162 and 2.8425 and 2.532 and 0.2334 and 1.094 and -1.004 and 0.5702 and 1.069
same,"β-arrestin2 recruitment response, agonist mode (normalized)",DRD5; Log[Drug] -9.52,1.189 and -0.1004 and 3.714 and 0.519 and 0.6511 and 2.841 and 3.8684 and 0.6677 and 1.209
same,"β-arrestin2 recruitment response, agonist mode (normalized)",DRD5; Log[Drug] -10,1.189 and -0.7027 and -2.2032 and 1.378 and 0.875 and 0.4502 and -0.1213 and -0.3875 and 2.24
same,"β-arrestin2 recruitment response, agonist mode (normalized)",DRD5; Log[Drug] -10.52,0.7608 and -0.5125 and 1.416 and 1.597 and 1.308 and 1.974 and 3.531 and 1.161 and 0.5451
same,"β-arrestin2 recruitment response, agonist mode (normalized)",DRD5; Log[Drug] -11,-0.3117 and 1.606 and -1.358 and 0.3916 and 1.977 and 2.8 and -0.009758 and 3.703 and 3.711
same,"β-arrestin2 recruitment response, agonist mode (normalized)",DRD5; Log[Drug] -11.52,-1.77 and 3.926 and 0.7503 and 1.5356 and 0.746 and 0.6788 and -0.4001 and 8.516 and 5.095
same,"β-arrestin2 recruitment response, agonist mode (normalized)",DRD5; Log[Drug] -12,-0.9088 and 2.256 and -1.342 and 2.237 and 0.341 and 1.2057 and -1.023 and 0.1729 and 0.8517
same,β-arrestin2 recruitment response in presence of serotonin (replicate values),5HT2C; Log[Drug] -5,58.3147 and 46.4286 and 67.806 and 58.4132 and 79.4697 and 68.0017 and 93.0961 and 72.2806 and 97.8926
same,"β-arrestin2 recruitment response (dose-response source data, replicate values)",5HT2C; Log[Drug] -5,0.7157 and -0.5401 and -1.168 and 2.766 and 0.7235 and 1.739 and 11.316 and 1.077 and 3.549
same,β-arrestin2 recruitment response in presence of serotonin (replicate values),5HT2C; Log[Drug] -5.52,54.8113 and 63.0121 and 49.2529 and 68.8758 and 64.9488 and 66.315 and 83.0753 and 67.6275 and 72.9664
same,"β-arrestin2 recruitment response (dose-response source data, replicate values)",5HT2C; Log[Drug] -5.52,1.749 and 2.795 and -1.663 and 3.765 and 1.711 and -0.08172 and 1.356 and 7.494 and -2.02
same,β-arrestin2 recruitment response in presence of serotonin (replicate values),5HT2C; Log[Drug] -6,55.8065 and 61.1873 and 58.6737 and 61.6241 and 75.6253 and 78.232 and 62.8429 and 85.8382 and 64.0091
same,"β-arrestin2 recruitment response (dose-response source data, replicate values)",5HT2C; Log[Drug] -6,3.06 and -0.5319 and 0.7534 and 2.096 and -0.5619 and -0.6198 and -1.437 and 2.573 and 0.749
same,β-arrestin2 recruitment response in presence of serotonin (replicate values),5HT2C; Log[Drug] -6.52,70.8253 and 57.3668 and 57.1998 and 54.2043 and 49.8953 and 65.9707 and 67.8605 and 93.5331 and 78.9014
same,"β-arrestin2 recruitment response (dose-response source data, replicate values)",5HT2C; Log[Drug] -6.52,-0.8494 and -0.7143 and 0.1419 and 1.691 and -0.2222 and -0.8824 and 6.685 and 2.505 and 2.238
same,β-arrestin2 recruitment response in presence of serotonin (replicate values),5HT2C; Log[Drug] -7,78.7809 and 65.1211 and 66.7181 and 78.276 and 64.6889 and 65.4492 and 69.2492 and 67.696 and 63.7064
same,"β-arrestin2 recruitment response (dose-response source data, replicate values)",5HT2C; Log[Drug] -7,-1.487 and -0.5714 and -1.709 and 1.211 and 0.5059 and 0.1139 and 0.4054 and 1.8599 and -0.4067
same,β-arrestin2 recruitment response in presence of serotonin (replicate values),5HT2C; Log[Drug] -7.52,60.5159 and 63.0454 and 62.4237 and 65.5364 and 59.1349 and 50.606 and 95.9761 and 69.8099 and 82.5107
same,"β-arrestin2 recruitment response (dose-response source data, replicate values)",5HT2C; Log[Drug] -7.52,4.965 and 0.04923 and -3.23 and 2.115 and 1.39 and -0.6014 and 1.1728 and 0.6792 and -0.974
same,β-arrestin2 recruitment response in presence of serotonin (replicate values),5HT2C; Log[Drug] -8,71.3267 and 75.4455 and 66.4208 and 75.6262 and 64.4484 and 59.5931 and 70.3904 and 75.8595 and 73.1664
same,"β-arrestin2 recruitment response (dose-response source data, replicate values)",5HT2C; Log[Drug] -8,1.2751 and -0.6351 and 2.803 and -0.01928 and -0.2938 and -0.4398 and 3.201 and 7.224 and -1.315
same,β-arrestin2 recruitment response in presence of serotonin (replicate values),5HT2C; Log[Drug] -8.52,58.0598 and 61.1071 and 60.9165 and 75.2534 and 73.2353 and 72.7725 and 80.2506 and 68.3081 and 73.8075
same,"β-arrestin2 recruitment response (dose-response source data, replicate values)",5HT2C; Log[Drug] -8.52,1.412 and -1.374 and -2.167 and -0.9173 and -0.6234 and -0.001836 and -1.0517 and 2.438 and -0.7292
same,β-arrestin2 recruitment response in presence of serotonin (replicate values),5HT2C; Log[Drug] -9,62.3446 and 66.0878 and 69.0787 and 68.4846 and 71.5679 and 75.9558 and 57.0421 and 71.8594 and 68.3133
same,"β-arrestin2 recruitment response (dose-response source data, replicate values)",5HT2C; Log[Drug] -9,8.947 and 0.2944 and -1.358 and 0.06794 and 1.215 and 1.023 and 1.659 and -1.676 and 1.911
same,β-arrestin2 recruitment response in presence of serotonin (replicate values),5HT2C; Log[Drug] -9.52,55.4527 and 57.9556 and 67.8156 and 72.3217 and 60.5213 and 59.5912 and 64.5922 and 60.3604 and 70.7827
same,"β-arrestin2 recruitment response (dose-response source data, replicate values)",5HT2C; Log[Drug] -9.52,0.7577 and 0.9406 and -1.056 and 0.774 and -0.8934 and -0.3755 and 4.117 and -0.7424 and 3.815
